The supplement of paper PMC10307832

What was measured:
Test in all cases: relative viability (nuclei count vs DMSO), 5 days (fraction); higher = more cells survive
[1] = compound: C1CNCCC1C2=CC(=NN2)C3=CC=NC=C3 + Cc1cc(Nc2cc(N3CCN(C)CC3)nc(Sc3ccc(NC(=O)C4CC4)cc3)n2)n[nH]1 [Tozasertib] (partner 0.1 µM)
In short: (§1)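 A single step with final 0.05% Triton X-100, 1% formaldehyde and 1 ug/ml Hoechst fixed the cells and stained nuclei 5 days after treatment. Lung cancer cell lines in 1536-well plates had been treated by pin tool the day after seeding with one drug alone or a fixed anchor-drug dose plus five library-drug doses (not always all listed) in √10 steps, and nuclei were counted on 4× images. Relative viability is the ratio of nuclei in treated wells to nuclei in vehicle wells, taken as the median of duplicate plates.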

[2] = compound: C1CNCCC1C2=CC(=NN2)C3=CC=NC=C3 + O=C(c1cc(Cc2n[nH]c(=O)c3ccccc23)ccc1F)N1CCN(C(=O)C2CC2)CC1 [Olaparib] (partner 8 µM)
In short: as §1

[3] = compound: C[C@@H](N)c1ccc(C(=O)Nc2ccnc3[nH]ccc23)cc1 + N=C(N)NC(=N)NCCc1ccccc1 [Phenformin] (partner 250 µM)
In short: as §1

[4] = compound: C[C@@H](N)c1ccc(C(=O)Nc2ccnc3[nH]ccc23)cc1 + C[C@]1(O)C[C@@H](c2nc(-c3ccc4ccc(-c5ccccc5)nc4c3)c3c(N)nccn32)C1 [Linsitinib] (partner 1 µM)
In short: as §1

Row | Cell Line | relative viability ([1]; first compound 0.08 µM) | relative viability ([1]; first compound 0.8 µM) | relative viability ([1]; first compound 2.53 µM) | relative viability ([1]; first compound 8 µM) | relative viability ([2]; first compound 0.08 µM) | relative viability ([2]; first compound 0.8 µM) | relative viability ([2]; first compound 2.53 µM) | relative viability ([2]; first compound 8 µM) | relative viability ([3]; first compound 0.04 µM) | relative viability ([3]; first compound 0.1265 µM) | relative viability ([3]; first compound 0.4 µM) | relative viability ([3]; first compound 1.265 µM) | relative viability ([3]; first compound 4 µM) | relative viability ([4]; first compound 0.04 µM) | relative viability ([4]; first compound 0.1265 µM) | relative viability ([4]; first compound 0.4 µM) | relative viability ([4]; first compound 1.265 µM) | relative viability ([4]; first compound 4 µM)
1 | LCLC-103H | 0.469 | 0.534 | 0.459 | 0.443 | 0.79 | 0.839 | 0.717 | 0.723 | 0.284 | 0.351 | 0.329 | 0.268 | 0.308 | 1.18 | 1.06 | 1.2 | 1.01 | 1.11
2 | NCI-H23 | 0.35 | 0.422 | 0.411 | 0.36 | 0.375 |  | 0.403 | 0.349 | 0.744 | 0.798 | 0.85 |  | 0.732 | 0.665 | 0.641 | 0.779 |  | 0.519
3 | NCI-H596 | 0.874 | 1.04 | 0.814 | 1.01 | 0.733 | 0.709 | 0.687 | 0.72 | 0.781 | 0.668 | 0.804 |  | 0.713 | 1.06 | 1.05 | 1.22 | 1.09 | 1.01
4 | NCI-H460 | 0.474 | 0.381 | 0.617 | 0.449 | 0.303 | 0.505 | 0.451 | 0.412 | 0.509 | 0.522 | 0.558 | 0.535 | 0.495 | 0.857 | 0.729 | 0.823 | 0.954 | 0.599
5 | HCC-366 | 0.214 | 0.137 | 0.182 | 0.123 | 0.341 | 0.412 | 0.498 | 0.36 | 0.583 | 0.66 | 0.617 |  | 0.57 | 0.615 | 0.63 | 0.785 |  | 0.49
6 | NCI-H2085 | 0.934 |  | 0.847 | 0.832 | 0.903 |  | 0.807 | 0.746 | 0.628 | 0.77 | 0.778 | 0.359 | 0.636 | 1.02 | 0.907 | 0.905 | 0.868 | 0.777
7 | PC-14 | 0.648 | 0.589 | 0.661 | 0.542 | 0.21 | 0.273 | 0.228 | 0.279 | 0.409 | 0.653 | 0.555 | 0.348 | 0.519 | 0.927 | 0.907 | 0.924 | 0.819 | 0.725
8 | HOP-62 | 0.416 | 0.407 | 0.386 | 0.383 | 0.234 | 0.386 | 0.275 | 0.47 | 0.607 | 0.609 | 0.636 | 0.552 | 0.607 | 0.972 | 0.983 | 0.88 | 1.03 | 0.954
9 | NCI-H2087 | 0.267 | 0.231 | 0.226 | 0.202 | 0.522 | 0.545 | 0.528 | 0.633 | 0.497 | 0.571 | 0.554 |  | 0.557 | 1 | 0.823 | 0.916 | 0.824 | 0.478
10 | NCI-H1793 | 0.313 | 0.243 | 0.332 | 0.373 | 0.748 |  | 0.902 | 0.953 | 0.355 | 0.424 | 0.421 |  | 0.393 | 1.02 | 0.878 | 0.83 |  | 0.787
